Measured values as given in patent publication US6461997B1, “Triazole sulfones having herbicidal activity” (Monsanto Technology LLC, priority 1999, dated 2002).

How the values were obtained:
[1] = test system: PANMI (wild proso millet); experiment: Pre-plant incorporated (PPI) herbicidal activity, warm season; format: in vivo, Panicum miliaceum; conditions: for inhibition at 10 g/ha / inhibition at 30 g/ha / inhibition at 100 g/ha / inhibition at 300 g/ha / inhibition at 900 g/ha: Panicum miliaceum, PPI application, read-out: Percent inhibition PANMI; for PPI activity GR80, PANMI: pre-plant incorporated, lowest tested rate with 80% or greater inhibition, about 14 days
Protocol: (§1) In another set of tests, the pre-plant incorporated (PPI) activity of compounds of this invention was evaluated on the same species as for the pre-emergence tests described above. In the PPI tests the following procedure, designed to simulate PPI application, was used.
(§2) A pre-prepared topsoil mixture (described above) was placed in a pot and compacted to a depth of 1.0 to 1.25 cm from the top of the pot. Seeds of each of several monocotyledonous and dicotyledonous annual plant species were placed on top of the soil. A sufficient quantity of soil to cover the seeds and level fill the pot was weighed into an open container. A known amount of the test compound was dissolved or suspended in an organic solvent and applied by spraying to this cover soil. The cover soil was thoroughly mixed to distribute the test compound throughout the cover soil, and was then applied as a cover layer over the seeds. Untreated soil was used as a cover layer for control pots. After treatment the plants were placed in a greenhouse where they received 0.64 cm of overhead irrigation. All subsequent watering consisted of a light overhead mist and/or subirrigation as needed for germination and growth. Tables 9 and 10 below relate to warm season plant species which were placed after pre-emergence treatment in a greenhouse with a 30/21° C. day/night temperature regime. Tables 11 and 12 below relates to cool season plant species placed after pre-emergence treatment in a greenhouse or growth chamber with an 18/13° C. day/night temperature regime. Only the compounds of Examples 1, 6, 8, 11, 13 and 15-20 were included in PPI tests.
(§3) Approximately 14 days after planting and treating, the plants were observed and herbicidal efficacy recorded as percent inhibition by comparison with untreated plants.

[2] = test system: VERPE (creeping speedwell); experiment: Pre-plant incorporated (PPI) herbicidal activity, cool season; format: in vivo, Veronica persicaria; conditions: for PPI activity GR80, VERPE: pre-plant incorporated, lowest tested rate with 80% or greater inhibition, about 14 days
Protocol: as §1, §2, §3

SORVU (shattercane) = experiment: Pre-emergence herbicidal activity, warm season; format: in vivo, Sorghum vulgare; conditions: for Pre-emergence activity (GR80) SORVU: GR80 = lowest tested rate (300, 100, 30, 10 g/ha) with 80% or greater inhibition, approx. 14 days after treating, 30/21° C.
In short: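 Activity is expressed as the rate giving 80% inhibition, with 300, 100, 30 and 10 g/ha typically tested. An asterisk marks activity short of 80% at the top rate. Warm-season grasses were held at 30/21 °C; cool-season blackgrass and wild buckwheat at 18/13 °C; scoring at about 14 days.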

ECHCG (barnyardgrass) = experiment: Pre-plant incorporated (PPI) herbicidal activity, warm season; format: in vivo, Echinochloa crus-galli; conditions: for inhibition at 10 g/ha / inhibition at 30 g/ha / inhibition at 100 g/ha / inhibition at 300 g/ha / inhibition at 900 g/ha: Echinochloa crus-galli, PPI application, read-out: Percent inhibition ECHCG; for PPI activity GR80, ECHCG: pre-plant incorporated, lowest tested rate with 80% or greater inhibition, about 14 days
Protocol: as §1, §2, §3

DIGSA (large crabgrass) = experiment: as above; format: in vivo, Digitaria sanguinalis; conditions: for inhibition at 10 g/ha / inhibition at 30 g/ha / inhibition at 100 g/ha / inhibition at 300 g/ha / inhibition at 900 g/ha: Digitaria sanguinalis, PPI application, read-out: Percent inhibition DIGSA; for PPI activity GR80, DIGSA: pre-plant incorporated, lowest tested rate with 80% or greater inhibition, about 14 days
Protocol: as §1, §2, §3

DATST (jimsonweed) = experiment: as above; format: in vivo, Datura stramonium; conditions: for inhibition at 10 g/ha / inhibition at 30 g/ha / inhibition at 100 g/ha / inhibition at 300 g/ha / inhibition at 900 g/ha: Datura stramonium, PPI application, read-out: Percent inhibition DATST; for PPI activity (GR80) DATST: pre-plant incorporated, GR80 = lowest tested rate with 80% or greater inhibition, approx. 14 days after treating, 30/21° C.
Protocol: as §1, §2, §3

[3] = test system: AGRRE (quackgrass (seedling)); experiment: Pre-plant incorporated (PPI) herbicidal activity, cool season; format: in vivo, Elymus repens; conditions: for PPI activity GR80, AGRRE: pre-plant incorporated, lowest tested rate with 80% or greater inhibition, about 14 days
Protocol: as §1, §2, §3

STEME (common chickweed) = experiment: Pre-emergence herbicidal activity, cool season; format: in vivo, Stellaria media; conditions: lowest tested rate with 80% or greater inhibition; rates 300, 100, 30, 10 g/ha; about 14 days
In short: (§4)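 GR80 values derive from percent inhibition relative to untreated plants, read roughly 14 days after sowing and pre-emergence soil-surface treatment (compound in 50:50 acetone/water; rates typically 10, 30, 100, 300 g/ha). Warm-season weeds grew at 30/21° C day/night, cool-season ones at 18/13° C; an asterisk marks activity without reaching 80% at the highest rate.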

SASKR (russian thistle) = experiment: Pre-emergence herbicidal activity, cool season; format: in vivo, Salsola kali; conditions: lowest tested rate with 80% or greater inhibition; rates 300, 100, 30, 10 g/ha; about 14 days
In short: as §4

[4] = Elymus repens, weed, PPI application, read-out: Percent inhibition AGRRE

Compound | inhibition at 10 g/ha [1] [%] | inhibition at 30 g/ha [1] [%] | inhibition at 100 g/ha [1] [%] | inhibition at 300 g/ha [1] [%] | inhibition at 900 g/ha [1] [%] | PPI activity GR80, PANMI [1] [g/ha] | PPI activity GR80, VERPE [2] | Pre-emergence activity (GR80) SORVU (SORVU (shattercane)) | inhibition at 10 g/ha (ECHCG (barnyardgrass)) [%] | inhibition at 30 g/ha (ECHCG (barnyardgrass)) [%] | inhibition at 100 g/ha (ECHCG (barnyardgrass)) [%] | inhibition at 300 g/ha (ECHCG (barnyardgrass)) [%] | inhibition at 900 g/ha (ECHCG (barnyardgrass)) [%] | PPI activity GR80, ECHCG (ECHCG (barnyardgrass)) [g/ha] | inhibition at 10 g/ha (DIGSA (large crabgrass)) [%] | PPI activity GR80, DIGSA (DIGSA (large crabgrass)) [g/ha] | PPI activity (GR80) DATST (DATST (jimsonweed)) [g/ha] | PPI activity GR80, AGRRE [3] | Pre-emergence activity GR80, STEME (STEME (common chickweed)) [g/ha] | Pre-emergence activity GR80, SASKR (SASKR (russian thistle)) | further results
C=C(C)CC(F)(F)S(=O)(=O)c1ncn(C(=O)N(CC)CC)n1 [Example 18] | 0 | 40 | 100 | 100 | 100 | 100 | [empty] | * (activity observed, at least at highest rate, but <80% inhibition) | 30 | 100 | 100 | 100 | 100 | 30 | 20 | 30 | 300 | 100 g/ha | 30 | 300 g/ha | inhibition at 10 g/ha ([2]; weed, PPI application, 10 g/ha, read-out: Percent inhibition VERPE): 0%; inhibition at 30 g/ha ([2]; weed, PPI application, 30 g/ha, read-out: Percent inhibition VERPE): 20%; inhibition at 100 g/ha ([2]; weed, PPI application, 100 g/ha, read-out: Percent inhibition VERPE): 80%; inhibition at 300 g/ha ([2]; weed, PPI application, 300 g/ha, read-out: Percent inhibition VERPE): 95%; inhibition at 900 g/ha ([2]; weed, PPI application, 900 g/ha, read-out: Percent inhibition VERPE): 99%; inhibition at 30 g/ha (DIGSA (large crabgrass)): 80%; inhibition at 100 g/ha (DIGSA (large crabgrass)): 80%; inhibition at 300 g/ha (DIGSA (large crabgrass)): 100%; inhibition at 900 g/ha (DIGSA (large crabgrass)): 100%; inhibition at 10 g/ha (DATST (jimsonweed)): 0%; inhibition at 30 g/ha (DATST (jimsonweed)): 0%; inhibition at 100 g/ha (DATST (jimsonweed)): 0%; inhibition at 300 g/ha (DATST (jimsonweed)): 60%; inhibition at 900 g/ha (DATST (jimsonweed)): 100%; inhibition at 10 g/ha ([3]; Elymus repens, weed, PPI application, 10 g/ha, read-out: Percent inhibition AGRRE): 0%; inhibition at 30 g/ha [3, 4]: 30%; inhibition at 100 g/ha [3, 4]: 20%; inhibition at 300 g/ha [3, 4]: 20%; inhibition at 900 g/ha [3, 4]: 80%
CCN(CC)C(=O)n1cnc(S(=O)(=O)C(F)(F)Br)n1 [Example 1, 3-(bromodifluoromethylsulfonyl)-1-(N,N-diethylcarbamoyl)-1,2,4-triazole] | 0 | 60 | 99 | 100 | 100 | 30 | 30 g/ha | * (activity observed, at least at highest rate, but <80% inhibition) | 0 | 20 | 99 | 100 | 100 | 30 | 80 | 100 | 30 | * (activity observed, at least at highest rate, but <80% inhibition) | 100 | 300 g/ha | inhibition at 10 g/ha (SORVU (shattercane); Sorghum bicolor, pre-emergence application, 10 g/ha, read-out: Percent inhibition, weed SORVU): 0%; inhibition at 30 g/ha (SORVU (shattercane); Sorghum bicolor, pre-emergence application, 30 g/ha, read-out: Percent inhibition, weed SORVU): 0%; inhibition at 100 g/ha (SORVU (shattercane); Sorghum bicolor, pre-emergence application, 100 g/ha, read-out: Percent inhibition, weed SORVU): 60%; inhibition at 300 g/ha (SORVU (shattercane); Sorghum bicolor, pre-emergence application, 300 g/ha, read-out: Percent inhibition, weed SORVU): 80%; inhibition at 900 g/ha (SORVU (shattercane); Sorghum bicolor, pre-emergence application, 900 g/ha, read-out: Percent inhibition, weed SORVU): 95%; inhibition at 30 g/ha (DIGSA (large crabgrass)): 95%; inhibition at 100 g/ha (DIGSA (large crabgrass)): 100%; inhibition at 300 g/ha (DIGSA (large crabgrass)): 100%; inhibition at 900 g/ha (DIGSA (large crabgrass)): 100%; inhibition at 10 g/ha (DATST (jimsonweed)): 0%; inhibition at 30 g/ha (DATST (jimsonweed)): 0%; inhibition at 100 g/ha (DATST (jimsonweed)): 0%; inhibition at 300 g/ha (DATST (jimsonweed)): 40%; inhibition at 900 g/ha (DATST (jimsonweed)): 95%; inhibition at 30 g/ha [3, 4]: 0%; inhibition at 100 g/ha [3, 4]: 20%; inhibition at 300 g/ha [3, 4]: 60%; inhibition at 900 g/ha [3, 4]: 95%
CCN(CC)C(=O)n1cnc(S(=O)(=O)C(F)(F)C(=O)c2ccccc2)n1 [Example 6] |  |  |  |  |  | 100 | 100 g/ha | * (activity observed, at least at highest rate, but <80% inhibition) |  |  |  |  |  | 100 |  | 100 | 300 | 300 g/ha | 300 | [empty] | 
